Reference: ChEMBL document CHEMBL5126608, “Development, Optimization, and In Vivo Validation of New Imidazopyridine Chemotypes as Dual TLR7/TLR9 Antagonists through Activity-Directed Sequential Incorporation of Relevant Structural Subunits” (J Med Chem, 2022)

Legend:
Toll-like receptor 8 = molecular target: T1, Toll-like receptor 8 (Homo sapiens, UniProt Q9NR97)
T1 sequence (Q9NR97 whole entry): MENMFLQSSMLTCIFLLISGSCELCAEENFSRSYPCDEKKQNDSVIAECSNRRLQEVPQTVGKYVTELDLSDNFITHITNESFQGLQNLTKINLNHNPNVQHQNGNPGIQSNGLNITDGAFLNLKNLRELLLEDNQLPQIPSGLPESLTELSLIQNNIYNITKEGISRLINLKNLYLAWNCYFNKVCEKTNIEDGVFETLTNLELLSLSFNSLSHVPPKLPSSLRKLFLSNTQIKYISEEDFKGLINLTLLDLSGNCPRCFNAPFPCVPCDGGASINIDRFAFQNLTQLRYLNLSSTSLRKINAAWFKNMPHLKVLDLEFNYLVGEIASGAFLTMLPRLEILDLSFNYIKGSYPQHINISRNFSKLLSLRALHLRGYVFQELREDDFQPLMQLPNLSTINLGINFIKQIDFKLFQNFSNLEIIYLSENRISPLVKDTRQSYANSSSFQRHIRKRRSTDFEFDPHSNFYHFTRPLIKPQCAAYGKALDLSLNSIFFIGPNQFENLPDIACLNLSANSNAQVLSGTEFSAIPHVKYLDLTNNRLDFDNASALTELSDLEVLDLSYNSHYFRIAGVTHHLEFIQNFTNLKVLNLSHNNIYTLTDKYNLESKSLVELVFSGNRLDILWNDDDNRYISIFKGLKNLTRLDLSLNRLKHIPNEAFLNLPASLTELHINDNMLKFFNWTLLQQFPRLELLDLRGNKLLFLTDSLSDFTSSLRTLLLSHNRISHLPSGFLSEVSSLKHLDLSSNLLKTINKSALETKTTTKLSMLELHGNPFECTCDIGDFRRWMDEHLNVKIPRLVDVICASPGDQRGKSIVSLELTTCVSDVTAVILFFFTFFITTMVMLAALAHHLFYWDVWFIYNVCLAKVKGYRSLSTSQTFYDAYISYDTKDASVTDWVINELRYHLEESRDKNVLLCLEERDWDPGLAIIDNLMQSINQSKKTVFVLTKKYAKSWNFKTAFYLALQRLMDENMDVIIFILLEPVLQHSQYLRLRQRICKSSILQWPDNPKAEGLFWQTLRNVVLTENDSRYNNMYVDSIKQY

Toll-like receptor 9 = molecular target: T2, Toll-like receptor 9 (Homo sapiens, UniProt Q9NR96); assay: Antagonist activity at human TLR9 expressed in HEK-blue hTLR9 cells assessed as inhibition of CpGB-induced NFkappaB activation preincubated with compound for 1 hrs followed by CpGB addition and measured next day by SEAP-based spectrophotometry assay; format: cell-based
T2 sequence (Q9NR96 whole entry): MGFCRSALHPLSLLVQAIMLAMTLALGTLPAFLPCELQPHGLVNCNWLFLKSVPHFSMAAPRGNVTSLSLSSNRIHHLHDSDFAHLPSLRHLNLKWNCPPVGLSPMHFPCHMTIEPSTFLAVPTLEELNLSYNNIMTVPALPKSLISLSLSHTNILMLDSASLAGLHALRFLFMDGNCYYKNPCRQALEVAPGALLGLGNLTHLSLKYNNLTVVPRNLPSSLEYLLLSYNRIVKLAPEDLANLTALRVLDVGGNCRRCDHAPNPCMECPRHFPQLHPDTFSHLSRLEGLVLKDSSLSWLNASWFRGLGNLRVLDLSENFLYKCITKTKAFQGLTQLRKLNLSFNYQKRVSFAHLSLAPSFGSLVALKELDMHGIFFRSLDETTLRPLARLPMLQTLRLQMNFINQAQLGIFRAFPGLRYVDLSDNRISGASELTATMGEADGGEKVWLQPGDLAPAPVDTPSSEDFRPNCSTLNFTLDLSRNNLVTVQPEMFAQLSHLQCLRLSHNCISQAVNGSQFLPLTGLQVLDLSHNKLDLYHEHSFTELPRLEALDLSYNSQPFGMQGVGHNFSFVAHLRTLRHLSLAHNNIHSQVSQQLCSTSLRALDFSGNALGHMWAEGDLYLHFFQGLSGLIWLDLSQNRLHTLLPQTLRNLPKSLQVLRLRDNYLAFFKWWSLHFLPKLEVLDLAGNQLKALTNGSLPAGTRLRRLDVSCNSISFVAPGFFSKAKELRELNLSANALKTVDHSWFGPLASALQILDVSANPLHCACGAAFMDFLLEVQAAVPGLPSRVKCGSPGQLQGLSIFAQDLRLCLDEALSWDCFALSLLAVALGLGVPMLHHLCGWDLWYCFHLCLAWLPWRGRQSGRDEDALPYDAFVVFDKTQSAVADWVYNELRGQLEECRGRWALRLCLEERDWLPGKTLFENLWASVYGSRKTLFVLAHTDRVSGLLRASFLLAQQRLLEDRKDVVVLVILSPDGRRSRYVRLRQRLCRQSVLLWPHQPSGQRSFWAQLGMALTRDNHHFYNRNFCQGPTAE

## COc1ccc(-c2cn3ccc(NCCCN4CCCC4)cc3n2)c(OC)c1
Toll-like receptor 8
  IC50: 17.2 µM
Toll-like receptor 9
  IC50: 0.019 µM
